Assay results published in ChEMBL document CHEMBL6115002, “Discovery of novel sitolactone derivative leading to PANoptosis and differentiation of acute myeloid leukemia cells” (Eur J Med Chem, 2025).
Calls of active or inactive are those of the source. The rule behind the calls is not given here.

What was measured:
[1] = Antiproliferative activity against mouse WEHI-3 cells assessed as inhibition cell proliferation incubated for 72 hrs by MTT assay; format: functional, cell-based; details: WEHI-3, 72 h
Kasumi 1 [2] = assay: Antiproliferative activity against human Kasumi 1 cells assessed as inhibition cell proliferation incubated for 72 hrs by MTT assay; format: functional, cell-based; details: Kasumi 1, 72 h
MV4-11 = assay: Antiproliferative activity against human MV4-11 cells assessed as inhibition cell proliferation incubated for 72 hrs by MTT assay; format: functional, cell-based; details: MV4-11, 72 h
[3] = Permeability of compound in human Caco-2 cells; format: ADME, cell-based
HCT-116 = assay: Inhibition of tumor sphere formation in human HCT-116 cells at 1.25 uM incubated for 24 hrs; format: functional, cell-based
[4] = Cmax in male Sprague-Dawley rat at 50 mg/kg, iv measured after 18 hrs LC/MS-MS analysis; format: ADME, organism-based; details: in vivo
[5] = AUC (0 to t) in male Sprague-Dawley rat at 50 mg/kg, iv measured after 18 hrs LC/MS-MS analysis; format: ADME, organism-based; details: in vivo
[6] = Half life in male Sprague-Dawley rat at 50 mg/kg, iv measured after 18 hrs LC/MS-MS analysis; format: ADME, organism-based; details: in vivo
[7] = Oral bioavailability in male Sprague-Dawley rat at 200 mg/kg measured after 18 hrs LC/MS-MS analysis; format: ADME, organism-based; details: in vivo
[8] = Cmax in male Sprague-Dawley rat at 200 mg/kg, po measured after 18 hrs LC/MS-MS analysis; format: ADME, organism-based; details: in vivo
[9] = AUC(0 to t) in male Sprague-Dawley rat at 200 mg/kg, po measured after 18 hrs LC/MS-MS analysis; format: ADME, organism-based; details: in vivo
[10] = Half life in male Sprague-Dawley rat at 200 mg/kg, po measured after 18 hrs LC/MS-MS analysis; format: ADME, organism-based; details: in vivo
Mus musculus [11] = assay: Antitumor activity against Balb/c mouse implanted with mouse WEHI-3 cells assessed as reduction in hepatomegaly at 100 to 200 mg/kg, po administered once daily for 15 days; format: functional, organism-based; details: dose 100-200 mg/kg, time 15.0 day
Mus musculus [12] = assay: Antitumor activity against Balb/c mouse implanted with mouse WEHI-3 cells assessed as reduction in splenomegaly at 100 to 200 mg/kg, po administered once daily for 15 days; format: functional, organism-based; details: dose 100-200 mg/kg, time 15.0 day
WEHI-3 [13] = assay: Antitumor activity against mouse WEHI-3 cells implanted in Balb/c mouse assessed as reduction in liver metastasis at 100 to 200 mg/kg, po administered daily for 15 days by H and E staining based analysis; format: functional, organism-based; details: dose 100-200 mg/kg, time 15.0 day
Mus musculus [14] = assay: Antitumor activity against Balb/c mouse implanted with mouse WEHI-3 cells assessed as reduction in splenomegaly at 1 mg/kg, po administered once daily for 15 days; format: functional, organism-based; details: time 15.0 day
Kasumi 1 [15] = assay: Upregulation of SMARCB1 protein level in human Kasumi 1 cells by pull down based Western blotting analysis; format: functional, cell-based
Kasumi 1 [16] = assay: Upregulation of SMARCA2 protein level in human Kasumi 1 cells by pull down based Western blotting analysis; format: functional, cell-based
Kasumi 1 [17] = assay: Upregulation of SMARCA4 protein level in human Kasumi 1 cells by pull down based Western blotting analysis; format: functional, cell-based
WEHI-3 [18] = assay: Induction of apoptosis in mouse WEHI-3 cells assessed as increase in cleaved PARP-1 level incubated for 24 hrs by Western blotting analysis; format: functional, cell-based; details: dose 25-50 µM
Kasumi 1 [19] = assay: Induction of apoptosis in human Kasumi 1 cells assessed as increase in cleaved PARP-1 level incubated for 24 hrs by Western blotting analysis; format: functional, cell-based; details: dose 25-50 µM
WEHI-3 [20] = assay: Induction of apoptosis in mouse WEHI-3 cells assessed as increase in caspase-3 level incubated for 24 hrs by Western blotting analysis; format: functional, cell-based; details: dose 25-50 µM
Kasumi 1 [21] = assay: Induction of apoptosis in human Kasumi 1 cells assessed as increase in caspase-3 level incubated for 24 hrs by Western blotting analysis; format: functional, cell-based; details: dose 25-50 µM
WEHI-3 [22] = assay: Induction of […] in mouse WEHI-3 cells assessed as activation of p-RIPK3 level at 25 to 50 uM incubated for 24 hrs by Western blotting analysis; format: functional, cell-based; details: dose 25-50 µM
Kasumi 1 [23] = assay: Induction of […] in human Kasumi 1 cells assessed as activation of p-RIPK3 level at 25 to 50 uM incubated for 24 hrs by Western blotting analysis; format: functional, cell-based; details: dose 25-50 µM
WEHI-3 [24] = assay: Induction of […] in mouse WEHI-3 cells assessed as activation of p-MLKL level at 25 to 50 uM incubated for 24 hrs by Western blotting analysis; format: functional, cell-based; details: dose 25-50 µM
Kasumi 1 [25] = assay: Induction of […] in human Kasumi 1 cells assessed as activation of p-MLKL level at 25 to 50 uM incubated for 24 hrs by Western blotting analysis; format: functional, cell-based; details: dose 25-50 µM
Mus musculus [26] = assay: Antitumor activity against Balb/c mouse implanted with mouse WEHI-3 cells assessed as reduction in hepatomegaly at 1 mg/kg, po administered once daily for 15 days; format: functional, organism-based; details: time 15.0 day

SMILES: C=C1C[C@@H]2[C@@H](CC[C@]3(C)[C@@H](OC(c4ccccc4)(c4ccccc4)c4ccccc4)CC[C@@H]23)OC1=O
- IC50 [1]: 1.03 µM
- IC50 (Kasumi 1 [2]): 1.85 µM
- IC50 (MV4-11): 2.68 µM
- permeability [3]: Permeable
- inhibition (HCT-116): inactive

SMILES: CC(C)[Si](O[C@H]1CC[C@H]2[C@@H]3CC(CN4CCC[C@H]4CO)C(=O)O[C@@H]3CC[C@]12C)(C(C)C)C(C)C (stereo partly specified)
- Cmax [4]: 12100 ng/mL
- AUC(0-t) at 18 h [5]: 7150 ng·h/mL
- half-life [6]: 16.3 min
- bioavailability [7]: 68.6%
- Cmax [8]: 17700 ng/mL
- AUC(0-t) at 18 h [9]: 19600 ng·h/mL
- half-life [10]: 59.8 min
- Activity (Mus musculus [11]): Active
- Activity (Mus musculus [12]): Active
- Activity (WEHI-3 [13]): Active
- Activity (Mus musculus [14]): Active

SMILES: CC(C)[Si](O[C@H]1CC[C@H]2[C@@H]3CC(CCCc4cn(CCOCCOCCOCCNC(=O)CCCC[C@@H]5SC[C@@H]6NC(=O)N[C@@H]65)nn4)C(=O)O[C@@H]3CC[C@]12C)(C(C)C)C(C)C (stereo partly specified)
- Activity (Kasumi 1 [15]): Active
- Activity (Kasumi 1 [16]): Active
- Activity (Kasumi 1 [17]): Active

SMILES: COC(=O)C[C@](O)(CCCC(C)(C)O)C(=O)O[C@@H]1C(OC)=C[C@]23CCCN2CCc2cc4c(cc2[C@H]13)OCO4
- Activity (WEHI-3 [18]): Dose-dependent-effect
- Activity (Kasumi 1 [19]): Dose-dependent-effect
- Activity (WEHI-3 [20]): Dose-dependent-effect
- Activity (Kasumi 1 [21]): Dose-dependent-effect
- Activity (WEHI-3 [22]): inactive
- Activity (Kasumi 1 [23]): inactive
- Activity (WEHI-3 [24]): inactive
- Activity (Kasumi 1 [25]): inactive
- Activity (Mus musculus [26]): Active

SMILES: C=C1C[C@@H]2[C@@H](CC[C@]3(C)[C@@H](OC(c4ccccc4)(c4ccc(OC)cc4)c4ccc(OC)cc4)CC[C@@H]23)OC1=O
- IC50 [1]: 0.94 µM
- IC50 (Kasumi 1 [2]): 1.46 µM
- IC50 (MV4-11): 3.04 µM
- permeability [3]: Permeable
- inhibition (HCT-116): inactive

SMILES: C=C1C[C@@H]2[C@@H](CC[C@]3(C)[C@@H](O[Si](C)(C)C)CC[C@@H]23)OC1=O
- IC50 [1]: 14.2 µM
- IC50 (Kasumi 1 [2]): 16.3 µM
- IC50 (MV4-11): > 20 µM
